Measurements published in patent publication US20180020667A1, “CHEMICAL COMPOSITIONS THAT PRESENT SYNERGIC EFFECT FOR […] INSECTS IN PERSONAL HYGIENE PRODUCTS, COSMETICS FOR HUMAN USE, IN ANIMALS AND ON INANIMATE SURFACES IN GENERAL” (Universal Chemical Ltda., priority 2016, published 2018).
Read-outs that look alike come from different tables or passages of the source.

Assays:
insects [1] = details: cited from earlier work
insects [2] = test: Length of protection against insect bites after application on the skin (conducted tests); assay type: in vivo
From the text: Icaridin and DEET are employed in this synergic mixture as active ingredient.

[3] = 5% active ingredient in the repellent
[4] = 10% active ingredient in the repellent
[5] = 15% active ingredient in the repellent
[6] = 20% active ingredient in the repellent

Molecule | Repellent Capacity Length of Protection (insects [1]; [3]) [h] | Repellent Capacity Length of Protection (insects [1]; [4]) [h] | Repellent Capacity Length of Protection (insects [1]; [5]) [h] | Repellent Capacity Length of Protection (insects [1]; [6]) [h] | Repellent Capacity Length of Protection (insects [1]; 50% active ingredient in the repellent) [h] | Length of protection against insect bites (insects [1]; concentration of 50%) [h] | Length of protection against insect bites (insects [2]; 7% concentration in the insect repellent) [h] | Length of protection against insect bites (insects [2]; 50% concentration in the insect repellent) [h] | Length of protection against insect bites (insects [1]; concentrations between 20 to 25%) | Length of protection against insect bites (insects [2]; 10% concentration in the insect repellent) [h] | Length of protection against insect bites (insects [2]; 20% concentration in the insect repellent) [h]
N,N-dimethyl-3-methylbenzamide [DEET] | 1 | 2 | 4 | 6 | 10 | 10 | 2 | 10 |  |  | 
CCC(C)OC(=O)N1CCCCC1CCO (stereo not drawn) [Icaridin, 1-piperidinecarboxylic acid, 2-(2-hydroxyethyl)-, 1-methylpropyl ester] | 1.5 | 4 | 7 | 10 |  |  |  |  | up to 10 hours | 4 | 10
